In one assay the target is IKZF2 (Homo sapiens, UniProt Q96SW2+Q9UKS7). Nature of the assay: Prolabel quantification of IKZF2 protein levels in 293GT cells. As to conditions: for inhibition at 10 µM: 24 h, read-out: IKZF2 % protein reduction at 10 µM, 24 h; for DC50: read-out: IKZF2 EC50, Helios (IKZF2) degradation, prolabel-tagged fusion protein in 293GT cells, highest concentration 50 µM.
The target in the next assay is IKZF1 (Homo sapiens, UniProt Q13422+Q96SW2). Nature of the assay: Prolabel quantification of IKZF1 protein levels in 293GT cells. As to conditions: read-out: IKZF1 EC50; Ikaros (IKZF1) degradation, prolabel-tagged fusion protein in 293GT cells; highest concentration 50 µM.
Chain of IKZF1 (Q13422 whole entry, the tested form may be a part): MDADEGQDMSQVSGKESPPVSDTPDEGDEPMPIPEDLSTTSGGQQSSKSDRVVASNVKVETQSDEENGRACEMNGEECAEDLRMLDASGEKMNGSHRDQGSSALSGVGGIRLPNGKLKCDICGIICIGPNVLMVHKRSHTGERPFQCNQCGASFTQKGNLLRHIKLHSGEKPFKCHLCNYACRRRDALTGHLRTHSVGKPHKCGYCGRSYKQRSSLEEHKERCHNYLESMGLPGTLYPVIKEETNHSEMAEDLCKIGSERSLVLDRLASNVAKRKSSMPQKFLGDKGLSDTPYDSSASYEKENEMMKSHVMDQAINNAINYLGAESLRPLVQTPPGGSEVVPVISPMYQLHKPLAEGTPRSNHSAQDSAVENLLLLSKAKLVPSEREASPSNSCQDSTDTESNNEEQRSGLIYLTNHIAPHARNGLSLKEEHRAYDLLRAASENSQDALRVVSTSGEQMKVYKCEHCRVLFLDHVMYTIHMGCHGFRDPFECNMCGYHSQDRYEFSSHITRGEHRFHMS
Chain of IKZF1 (Q96SW2 whole entry, the tested form may be a part): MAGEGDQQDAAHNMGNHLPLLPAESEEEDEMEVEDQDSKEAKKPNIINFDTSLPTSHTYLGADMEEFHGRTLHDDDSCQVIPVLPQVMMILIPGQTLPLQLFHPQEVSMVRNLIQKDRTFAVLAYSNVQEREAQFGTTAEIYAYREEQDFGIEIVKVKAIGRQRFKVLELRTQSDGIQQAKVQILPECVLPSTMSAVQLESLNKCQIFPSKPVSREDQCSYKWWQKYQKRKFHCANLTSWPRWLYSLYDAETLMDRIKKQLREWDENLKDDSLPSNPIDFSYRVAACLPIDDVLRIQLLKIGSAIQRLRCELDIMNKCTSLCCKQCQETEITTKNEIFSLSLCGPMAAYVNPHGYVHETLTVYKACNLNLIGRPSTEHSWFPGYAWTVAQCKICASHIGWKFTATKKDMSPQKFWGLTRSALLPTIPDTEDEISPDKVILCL
Chain of IKZF1 (Q16531 whole entry partner, the tested form may be a part): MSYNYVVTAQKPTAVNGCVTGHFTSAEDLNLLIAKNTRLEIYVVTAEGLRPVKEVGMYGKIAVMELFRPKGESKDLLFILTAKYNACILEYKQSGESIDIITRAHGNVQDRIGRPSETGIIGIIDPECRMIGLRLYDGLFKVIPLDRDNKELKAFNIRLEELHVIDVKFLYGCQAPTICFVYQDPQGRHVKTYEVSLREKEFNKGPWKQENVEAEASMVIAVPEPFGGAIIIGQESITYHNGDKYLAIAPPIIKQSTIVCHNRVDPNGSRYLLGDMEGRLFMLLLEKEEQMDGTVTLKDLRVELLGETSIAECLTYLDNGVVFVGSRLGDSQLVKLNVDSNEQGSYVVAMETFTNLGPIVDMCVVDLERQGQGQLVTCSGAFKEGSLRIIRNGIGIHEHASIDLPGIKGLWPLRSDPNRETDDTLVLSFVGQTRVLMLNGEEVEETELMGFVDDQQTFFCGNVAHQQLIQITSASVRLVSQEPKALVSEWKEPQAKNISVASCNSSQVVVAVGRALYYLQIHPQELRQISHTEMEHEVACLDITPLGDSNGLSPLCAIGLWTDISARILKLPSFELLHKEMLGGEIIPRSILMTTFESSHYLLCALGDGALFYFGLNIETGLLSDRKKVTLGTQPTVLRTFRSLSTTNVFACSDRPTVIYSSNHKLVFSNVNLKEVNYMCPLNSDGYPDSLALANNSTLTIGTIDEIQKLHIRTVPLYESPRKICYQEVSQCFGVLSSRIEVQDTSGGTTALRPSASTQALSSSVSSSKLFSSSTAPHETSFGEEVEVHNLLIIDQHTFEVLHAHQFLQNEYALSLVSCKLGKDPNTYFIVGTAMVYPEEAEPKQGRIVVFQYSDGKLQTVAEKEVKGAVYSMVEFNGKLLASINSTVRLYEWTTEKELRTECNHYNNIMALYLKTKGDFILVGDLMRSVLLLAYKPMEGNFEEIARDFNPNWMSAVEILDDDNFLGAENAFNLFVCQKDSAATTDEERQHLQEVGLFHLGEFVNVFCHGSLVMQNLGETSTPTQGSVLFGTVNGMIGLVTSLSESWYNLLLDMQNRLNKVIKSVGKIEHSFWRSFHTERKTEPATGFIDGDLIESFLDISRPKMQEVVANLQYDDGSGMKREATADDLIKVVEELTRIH
In a further assay the target is GSPT1 (Homo sapiens, UniProt P15170+Q96SW2). As to conditions: read-out: GSPT1 EC50; GSPT1 degradation, prolabel-tagged fusion protein in 293GT cells; highest concentration 50 µM.
Chain of GSPT1 (P15170 whole entry, the tested form may be a part): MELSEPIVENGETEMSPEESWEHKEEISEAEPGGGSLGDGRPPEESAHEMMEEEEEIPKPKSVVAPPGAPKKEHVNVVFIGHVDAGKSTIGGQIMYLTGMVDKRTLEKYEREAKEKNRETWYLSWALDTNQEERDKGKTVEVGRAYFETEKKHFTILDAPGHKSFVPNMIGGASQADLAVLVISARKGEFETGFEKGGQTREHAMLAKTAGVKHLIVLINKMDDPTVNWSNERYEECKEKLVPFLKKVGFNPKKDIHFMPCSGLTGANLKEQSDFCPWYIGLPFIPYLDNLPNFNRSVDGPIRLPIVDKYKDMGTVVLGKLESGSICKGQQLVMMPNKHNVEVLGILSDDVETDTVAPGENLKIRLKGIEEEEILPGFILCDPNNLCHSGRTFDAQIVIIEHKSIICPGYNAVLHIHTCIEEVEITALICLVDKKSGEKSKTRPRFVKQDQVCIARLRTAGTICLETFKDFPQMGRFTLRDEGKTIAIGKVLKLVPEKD
Chain of GSPT1 (Q96SW2 whole entry, the tested form may be a part): as the sequence (Q96SW2 whole entry, the tested form may be a part) above
Chain of GSPT1 (Q16531 whole entry partner, the tested form may be a part): as the sequence (Q16531 whole entry partner, the tested form may be a part) above

Chain of IKZF2 (Q9UKS7 whole entry, the tested form may be a part): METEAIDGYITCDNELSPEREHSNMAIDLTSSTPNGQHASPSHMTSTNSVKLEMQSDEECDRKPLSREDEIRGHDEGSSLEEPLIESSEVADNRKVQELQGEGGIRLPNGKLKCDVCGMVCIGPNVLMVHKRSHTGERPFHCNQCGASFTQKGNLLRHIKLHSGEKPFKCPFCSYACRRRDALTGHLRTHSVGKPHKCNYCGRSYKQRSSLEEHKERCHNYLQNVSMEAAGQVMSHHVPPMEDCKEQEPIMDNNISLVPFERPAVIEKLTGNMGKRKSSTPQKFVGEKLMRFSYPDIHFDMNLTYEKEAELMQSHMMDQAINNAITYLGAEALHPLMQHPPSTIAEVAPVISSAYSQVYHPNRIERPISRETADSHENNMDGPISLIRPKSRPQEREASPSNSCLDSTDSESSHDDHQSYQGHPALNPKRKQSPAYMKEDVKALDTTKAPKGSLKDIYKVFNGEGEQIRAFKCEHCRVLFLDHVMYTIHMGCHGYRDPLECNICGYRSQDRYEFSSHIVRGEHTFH
Chain of IKZF2 (Q96SW2 whole entry, the tested form may be a part): as the sequence (Q96SW2 whole entry, the tested form may be a part) above
Chain of IKZF2 (Q16531 whole entry partner, the tested form may be a part): as the sequence (Q16531 whole entry partner, the tested form may be a part) above
Protocol for GSPT1: (§1) The Prolabel system from DiscoverX was used to develop high-throughput and quantitative assays to measure changes in IKZF1, IKZF2, and GSPT1 protein levels in response to compounds. […] The complementary fragment of beta-galactosidase (from DiscoverX), is added to the prolabel tag to form an active beta galactosidase enzyme whose activity can be precisely measured. In this way, the levels of a fusion protein with the prolabel tag can be quantified in cell lysates.
(§2) Lentiviral vectors, based on the Invitrogen pLenti6.2/V5 DEST backbone, were constructed that placed the prolabel tag upstream of IKZF1, IKZF2, or GSPT1 and expressed the fusion protein from a CMV promoter.
(§3) To ensure moderate and consistent expression of the prolabel fusion proteins across all cells in the population, stable cell lines were constructed from cells expressing a single copy of the construct. Lentivirus packaged with the constructs was made using the Virapower kit from Invitrogen.
(§4) The levels of prolabel tagged fusion proteins in compound treated cell lines were measured as follows: • Day 1, Cells were diluted to 1.0 x 10^6 cells/ml in normal growth medium. 17.5 µL of cells were plated in each well of a solid white 384 well plate. Plates were incubated overnight in a 37 °C tissue culture incubator. • Day 2, Serial dilutions of compounds were made in 384 well plates from 10 mM stocks. 15 µL of DMSO was added to each well of a 384 well plate. In the first column 15µL of stock compound was added. The solution was mixed and 15 µL was transferred to the next column. This was repeated until 20 two-fold dilutions were prepared. 2.5 µL of diluted compounds were transferred into 60 µL of cell culture medium in another 384 well plate, and mixed well. 2.5 µL of this mixture was added to the plated cells. The final DMSO concentration was 0.5% and the highest concentration of compound was 50 µM. Plates were incubated overnight (e.g., about 14 h, 18 h, or 24 h) in a 37 °C tissue culture incubator. • Day 3, Plates were removed from the incubator and allowed to equilibrate at rt for 30 minutes. Prolabel substrate (DiscoverX PathHunter Prolabel Detection Kit, User manual: 93-0180) was added as described by the manufacturers protocols. Plates were incubated at rt for three hours and luminescence was read using an Envision reader (Perkin Elmer) Data was analyzed and visualized using the Spotfire software package.
Protocol for IKZF1: as §1, §2, §3, §4
Protocol for IKZF2: as §1, §2, §3, §4

Consider `CN[C@H]1CCCCC[C@@H]1N(C)c1ccc2c(c1)C(=O)N(C1CCC(=O)NC1=O)C2=O` (stereo partly drawn) [Compound I-109, 2-(2,6-dioxopiperidin-3-yl)-5-(methyl((1S,2S)-2-(methylamino)cycloheptyl)amino)isoindoline-1,3-dione], for which the inhibition at 10 µM on IKZF2 came to 70%. Further, the values for the DC50 on IKZF2, at IKZF1 and on GSPT1 were 230 nM, over 30000 nM and over 50000 nM, respectively.
With `CN[C@H]1CCCC[C@@H]1N(C)c1ccc2c(c1)C(=O)N(C1CCC(=O)NC1=O)C2=O` (stereo partly drawn) [Compound I-114, 2-(2,6-dioxopiperidin-3-yl)-5-(methyl((1S,2S)-2-(methylamino)cyclohexyl)amino)isoindoline-1,3-dione], the inhibition at 10 µM on IKZF2 is 70%. For the same compound, the DC50 at IKZF2 is 24 nM; on IKZF1, 290 nM; on GSPT1, over 50000 nM.
As to `CN(C)[C@H]1CCCC[C@@H]1Nc1ccc2c(c1)C(=O)N(C1CCC(=O)NC1=O)C2=O` (stereo partly drawn) [Compound I-153, 5-(((1S,2S)-2-(dimethylamino)cyclohexyl)amino)-2-(2,6-dioxopiperidin-3-yl)isoindoline-1,3-dione], the inhibition at 10 µM on IKZF2 stood at 50%. Moreover, the figures for the DC50 at IKZF2, on IKZF1 and on GSPT1 were 410 nM, over 30000 nM and over 50000 nM, respectively.

These data come from patent EP3820574B1, “3-(5-AMINO-1-OXOISOINDOLIN-2-YL)PIPERIDINE-2,6-DIONE DERIVATIVES AND THEIR USE IN THE TREATMENT OF IKAROS FAMILY ZINC FINGER 2 (IKZF2)-DEPENDENT DISEASES” (Novartis AG, priority 2018, dated 2020).
